Measured values reported in patent publication US20100222311A1, “SOLID FORMULATIONS OF CRYSTALLINE COMPOUNDS” (PURDUE RESEARCH FOUNDATION, priority 2007, published 2010).

Legend:
[1] = X-Ray diffraction, crystallinity of extrudates; assay type: physicochemical; details: excipient extruded alone
Protocol: The crystal structure was characterized by X-Ray diffraction (LabX XRD6000, Shimadzu, Columbia, Md., USA). […] The powdered samples were placed in aluminum holders and measured in the reflection mode from 10 to 40° 2θ. The scanning rate was 5°/min using a sampling pitch of 0.02°. Each sample was measured in duplicate.

[2] = Dissolution test, USP paddle apparatus, UV quantification of active pharmaceutical ingredient release; assay type: physicochemical; details: water, 37° C., paddle 50 rpm; pure drug powder
Protocol: Pre-mixed, dry powder materials (10% griseofulvin in α-mannitiol or 50% griseofulvin in α-mannitiol) were extruded using a production scale extruder (Leistritz Mikro GL 27-28D, Leistritz, Nuermber, Germany). […] The shear rate was varied on two levels during extrusion by varying the barrel length, the number of die holes and screw configuration. The extrudates were characterized by a dissolution test in accordance to the preliminary experiments (see FIG. 10). The dissolution tests were performed in a paddle apparatus (VK7030, Varian, Cary, N.C., USA) in accordance with the USP at 50 rpm. Six samples of each batch were tested in water at 37° C. as dissolution media. For the dissolution test, the extrudates were cut in small pieces of approximately 2 mg. The active pharmaceutical ingredient release was quantified with a UV-photometer (DU 640, Beckman, Fellerton, USA; Cary 300, Varian, Victoria, Australia) using different wavelengths (griseofulvin 296 nm, phenytoin 220 nm and spironolactone 243 nm) for 120 min using a cuvette with a 50 mm path length.

Row | crystallization after extrusion, in words [1] | SMILES | further results
1 | – | C[C@H](O)C(=O)O [L-(+)-lactic acid, L-(+)-Lactic acid] | time within which crystallization was completed [1]: ≤ 24 h
2 | still predominantly amorphous after 24 h | OC[C@@H](O)[C@@H](O)[C@H](O)[C@@H](O)CO [Sorbitol, sorbitol] | –
3 | – | COC1=CC(=O)C[C@@H](C)[C@]12Oc1c(Cl)c(OC)cc(OC)c1C2=O [griseofulvin] | time to attain 50% release [2]: six
4 | rapid crystallization | OC[C@@H](O)[C@@H](O)[C@@H](O)CO [adonitol] | –
